Data: the NIST ThermoML archive (doi:10.1021/je0400052)
± gives the expanded uncertainty stated by the source.

Tests used:
[1] = refractive index (Na D-line) (dimensionless); conditions: 101.33 kPa, Liquid
[2] = 101.33 kPa, Liquid

| SMILES | refractive index ([1]; 303.15 K) | refractive index ([1]; 313.15 K) | mass density ([2]; 303.15 K) | viscosity ([2]; 303.15 K) | mass density ([2]; 313.15 K) | viscosity ([2]; 313.15 K) |
| --- | --- | --- | --- | --- | --- | --- |
| Cc1ccc(C)cc1 [1,4-dimethylbenzene] | 1.4911 ± 0.0025 | 1.4902 ± 0.0025 | 851.9 ± 1.8 kg/m3 | 0.566 ± 0.016 mPa·s | 844 ± 2 kg/m3 | 0.517 ± 0.015 mPa·s |
| CCOC(=O)c1ccccc1 [ethyl benzoate] | 1.5009 ± 0.0025 | 1.4997 ± 0.0025 | 1037.4 ± 2.3 kg/m3 | 1.748 ± 0.042 mPa·s | 1028.5 ± 2.4 kg/m3 | 1.438 ± 0.035 mPa·s |
| CCOC=O [ethyl methanoate] | 1.3552 ± 0.0032 | 1.3549 ± 0.0032 | 908.1 ± 2.1 kg/m3 | 0.366 ± 0.011 mPa·s | 894.9 ± 2.2 kg/m3 | 0.339 ± 0.011 mPa·s |
| CCc1ccccc1 [ethylbenzene] | 1.491 ± 0.0025 | 1.4891 ± 0.0025 | 857.6 ± 1.8 kg/m3 | 0.597 ± 0.016 mPa·s | 849.2 ± 2 kg/m3 | 0.538 ± 0.015 mPa·s |
